Experimental data reported in BindingDB's records for patent US20240425453 (Neophore, 2024).
pIC50: −log10 of the molar value.

Target: T1, Mismatch repair endonuclease PMS2 (UniProt P54278)
T1 sequence (P54278 whole entry): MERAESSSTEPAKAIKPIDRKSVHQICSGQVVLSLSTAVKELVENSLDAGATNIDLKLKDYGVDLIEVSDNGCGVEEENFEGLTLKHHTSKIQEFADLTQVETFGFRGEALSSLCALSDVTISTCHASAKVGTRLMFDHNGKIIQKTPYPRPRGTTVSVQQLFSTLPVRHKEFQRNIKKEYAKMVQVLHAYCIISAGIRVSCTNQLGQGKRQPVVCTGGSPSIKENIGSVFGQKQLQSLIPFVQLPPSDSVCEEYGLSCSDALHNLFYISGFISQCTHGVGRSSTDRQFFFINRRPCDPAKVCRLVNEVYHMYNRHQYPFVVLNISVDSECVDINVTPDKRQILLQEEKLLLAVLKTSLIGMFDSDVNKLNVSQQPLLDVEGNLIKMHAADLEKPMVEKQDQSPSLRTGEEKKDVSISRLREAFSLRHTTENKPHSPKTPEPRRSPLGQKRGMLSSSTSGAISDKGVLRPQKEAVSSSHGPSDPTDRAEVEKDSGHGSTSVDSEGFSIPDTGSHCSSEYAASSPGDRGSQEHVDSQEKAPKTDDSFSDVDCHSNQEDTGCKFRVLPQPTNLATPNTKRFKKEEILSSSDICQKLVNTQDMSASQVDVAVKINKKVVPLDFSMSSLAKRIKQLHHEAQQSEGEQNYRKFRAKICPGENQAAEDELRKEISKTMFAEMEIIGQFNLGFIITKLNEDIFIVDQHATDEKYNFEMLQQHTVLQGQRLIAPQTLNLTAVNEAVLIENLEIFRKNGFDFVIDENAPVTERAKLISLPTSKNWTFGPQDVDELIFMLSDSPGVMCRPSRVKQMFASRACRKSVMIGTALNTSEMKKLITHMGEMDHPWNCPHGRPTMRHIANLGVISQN
Experiment: Fluorescence Polarization Assay for PMS2

- pIC50: < 6.00
Compound: C=C(CN(C)C)C(=O)Nc1cccc2c1CN(C(=O)c1c(O)cc(O)c(C)c1OC)C2 [US20240425453, Example 36]
